Results on 7 compounds are retold here after US10350199B2, “3-(1h-pyrrolo[2,3-b]pyridin-2-yl)-1h-indazoles and therapeutic uses thereof” (Samumed, LLC, priority 2015, dated 2019).

For orientation: inhibition means how much of the control response was suppressed. As a reminder, the EC50 is the concentration that produces a half-maximal response.

What all share (type): cell-based
The subject of experiment [1] is Wnt activity (Sp5-Luc reporter, SW480 colon carcinoma cells). Description: Wnt activity screening assay, Sp5-Luc reporter gene in SW480 cells. As to conditions: Homo sapiens; for inhibition at 10 µM: SW480, read-out: percent inhibition at 10 μM; for EC50: Sp5-Luc reporter, SW480 cells, overnight incubation. In outline:
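Read-out is BrightGlo luminescence, normalized to DMSO-treated cells and fitted by four-parameter variable-slope regression for EC50. Reporter cells: SW480 colon carcinoma carrying a stable lentiviral Sp5-Luc construct with eight TCF/LEF sites, seeded 4,000/well in 1% FBS, incubated overnight at 37° C.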

Experiment [2] relates to primary human fibroblasts derived from IPF patients (LL29 cells) treated with TGF-β1. Kind of experiment: Inhibition of the fibrotic process: αSMA staining in TGF-β1 treated LL29 fibroblasts. The following applies: Fibroblast; for EC50: 96 h, LL29 cells, TGF-β1 20 ng/mL, 4 days, % αSMA positive cells; for inhibition at 10 µM: read-out: percent inhibition at 10 μM. Summed up: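 Read-out after 4-day incubation: αSMA staining with 1 μM SYTOX green nuclear counterstain (30 min, room temperature). Cells were LL29 primary fibroblasts from IPF patients, in 1% FBS F12, exposed to TGF-β1 with test compound, referenced to TGF-β1/DMSO control wells.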

Experiment [3] concerns SW480 colon cancer cells. Kind of experiment: Cell viability assay (CellTiter-Blue), SW480 cells, four days. The following applies: Homo sapiens; for EC50: 96 h, SW480 cell viability, four days, CellTiter-Blue; for inhibition at 10 µM: SW480, read-out: percent inhibition at 10 μM. In outline: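 Fluorescence from resazurin reduced to resorufin by metabolically active cells was the read-out, taken after ~3 h with CellTiter-Blue.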
(In general: The colour change of resazurin is a common sign of viable cells or microbes.)

Experiment [4] relates to primary human mesenchymal stem cells (hMSCs). Description: Induction of chondrogenesis in human mesenchymal stem cells (nodule area, Rhodamine B/Nile Red). As to conditions: hMSC chondrogenesis, relative to TGF-β3 (10 ng/mL) positive control, read-out: Max. Activity as % TGF-β3 activity. Summed up:
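Primary hMSCs at passage 3-6 were treated with compound; nodule area per well was normalized to the mean of 3 DMSO wells, averaged over 2-3 replicates, and the concentration giving 50% chondrogenesis relative to TGF-β3 control, plus maximum activity and its dose, was derived.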

Experiment [5] has as its system IL-6 (THP-1 human monocyte cell line). Kind of experiment: IL-6 inhibition in LPS-stimulated THP-1 cells (HTRF). The following applies: for EC50: IL-6 inhibition, LPS-stimulated THP-1 cells, HTRF; for inhibition at 10 µM: THP-1, read-out: percentage in parentheses beside EC50 >10 (IL-6 inhibition). In outline:
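After 24 h in 1% FBS medium, cells had compound 2 h before 500 ng/mL LPS, then 22 h more at 37 °C. DMSO-normalized HTRF signal (665/620 nm ratio, anti-IL-6 antibody pair) was fitted with a variable-slope four-parameter model to give EC50.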
Background: TR-FRET usually uses a lanthanide donor and a delayed reading to cut background.

Structures are written as SMILES.

For `Cn1cc(-c2ccc3[nH]nc(-c4cc5c(-c6cccnc6)ccnc5[nH]4)c3c2)cn1` [Compound 556, 5-(1-Methyl-1H-pyrazol-4-yl)-3-(4-(pyridin-3-yl)-1H-pyrrolo[2,3-b]pyridin-2-yl)-1H-indazole], the inhibition at 10 µM in experiment [1] stood at 20%; in experiment [3], 0%. Moreover, the 50% effective concentration (EC50) in experiment [1] was more than 10 µM; in experiment [2] it was 0.191 µM; in experiment [3] it was more than 10 µM; in experiment [5] it was 0.586 µM. Further, the Emax in experiment [4] was found to be 28%.
Consider `CN1CCN(c2ccnc3[nH]c(-c4n[nH]c5ccc(-c6cncc(NC(=O)CC7CCNCC7)c6)cc45)cc23)CC1` [Compound 641, N-(5-(3-(4-(4-Methylpiperazin-1-yl)-1H-pyrrolo[2,3-b]pyridin-2-yl)-1H-indazol-5-yl)pyridin-3-yl)-2-(piperidin-4-yl)acetamide], for which the inhibition at 10 µM in experiment [1] worked out at 10.8%; in experiment [2], 23.5%; in experiment [3], 16.2%; in experiment [5], 26%. For the same compound, the EC50 in experiment [1], in experiment [2], in experiment [3] and in experiment [5] was more than 10 µM each time. Also, the Emax in experiment [4] worked out at 17%.
Take `c1cnc2[nH]c(-c3n[nH]c4ccc(-c5cncc(OCCN6CCCC6)c5)cc34)cc2c1` [Compound 658, 5-(5-(2-(Pyrrolidin-1-yl)ethoxy)pyridin-3-yl)-3-(1H-pyrrolo[2,3-b]pyridin-2-yl)-1H-indazole]: the EC50 turned out to be 3.29 µM in experiment [1], 1.2 µM in experiment [2], 3.94 µM in experiment [3] and 0.205 µM in experiment [5]. Further, the Emax in experiment [4] was 43%.
On to `COc1cncc(-c2ccc3[nH]nc(-c4cc5c(-c6ccoc6)ccnc5[nH]4)c3c2)c1` [Compound 692, 3-(4-(Furan-3-yl)-1H-pyrrolo[2,3-b]pyridin-2-yl)-5-(5-methoxypyridin-3-yl)-1H-indazole], for which the inhibition at 10 µM amounted to 20% in experiment [1], 0% in experiment [2], 0% in experiment [3] and 43.9% in experiment [5]. The EC50 in experiment [1], in experiment [2], in experiment [3] and in experiment [5] was more than 10 µM throughout. Besides, in experiment [4], the Emax worked out at 26%.
On to `CN(C)Cc1cncc(-c2cc(F)c3[nH]nc(-c4cc5c(-c6cccc(F)c6)ccnc5[nH]4)c3c2)c1` [Compound 992, 1-(5-(7-Fluoro-3-(4-(3-fluorophenyl)-1H-pyrrolo[2,3-b]pyridin-2-yl)-1H-indazol-5-yl)pyridin-3-yl)-N,N-dimethylmethanamine], for which the inhibition at 10 µM in experiment [1] stood at 17%; in experiment [2] it was 5.2%; in experiment [3] it was 3.6%; in experiment [5], 34.2%. In addition, the EC50 in experiment [1], in experiment [2], in experiment [3] and in experiment [5] was more than 10 µM in each case. In addition, the Emax in experiment [4] was determined as 35%.
Consider `CN(C)Cc1cncc(-c2cc3c(-c4cc5c(-c6cccc(F)c6)ccnc5[nH]4)n[nH]c3cc2F)c1` [Compound 993, 1-(5-(6-Fluoro-3-(4-(3-fluorophenyl)-1H-pyrrolo[2,3-b]pyridin-2-yl)-1H-indazol-5-yl)pyridin-3-yl)-N,N-dimethylmethanamine], for which the EC50 in experiment [1] is more than 10 µM; in experiment [2], 1.63 µM; in experiment [3], 2.4 µM; in experiment [5], 0.852 µM. Besides, the Emax in experiment [4] was 28%.
`CN(C)Cc1cncc(-c2ccc3[nH]nc(-c4cc5c(-c6cccc(F)c6)ccnc5[nH]4)c3c2F)c1` [Compound 994, 1-(5-(4-Fluoro-3-(4-(3-fluorophenyl)-1H-pyrrolo[2,3-b]pyridin-2-yl)-1H-indazol-5-yl)pyridin-3-yl)-N,N-dimethylmethanamine]: the results for the inhibition at 10 µM in experiment [1], in experiment [3] and in experiment [5] were 20.8%, 34.7% and 36.6%, respectively. The half-maximal effective concentration (EC50) in experiment [1] was more than 10 µM; in experiment [2] it was 4.9 µM; in experiment [3], more than 10 µM; in experiment [5], more than 10 µM. The Emax in experiment [4] was 21%.
